Results on 27 compounds are retold here after patent US10106516B2, “PDE10 inhibitors and related compositions and methods” (Omeros Corporation, priority 2010, dated 2018).

The assay deals with T1, PDE10 (Homo sapiens, UniProt Q9Y233).
T1 construct: made in house; host or cells: Sf9 insect cells (baculovirus)
T1 sequence (Q9Y233 1-779 isoform Q9Y233-1): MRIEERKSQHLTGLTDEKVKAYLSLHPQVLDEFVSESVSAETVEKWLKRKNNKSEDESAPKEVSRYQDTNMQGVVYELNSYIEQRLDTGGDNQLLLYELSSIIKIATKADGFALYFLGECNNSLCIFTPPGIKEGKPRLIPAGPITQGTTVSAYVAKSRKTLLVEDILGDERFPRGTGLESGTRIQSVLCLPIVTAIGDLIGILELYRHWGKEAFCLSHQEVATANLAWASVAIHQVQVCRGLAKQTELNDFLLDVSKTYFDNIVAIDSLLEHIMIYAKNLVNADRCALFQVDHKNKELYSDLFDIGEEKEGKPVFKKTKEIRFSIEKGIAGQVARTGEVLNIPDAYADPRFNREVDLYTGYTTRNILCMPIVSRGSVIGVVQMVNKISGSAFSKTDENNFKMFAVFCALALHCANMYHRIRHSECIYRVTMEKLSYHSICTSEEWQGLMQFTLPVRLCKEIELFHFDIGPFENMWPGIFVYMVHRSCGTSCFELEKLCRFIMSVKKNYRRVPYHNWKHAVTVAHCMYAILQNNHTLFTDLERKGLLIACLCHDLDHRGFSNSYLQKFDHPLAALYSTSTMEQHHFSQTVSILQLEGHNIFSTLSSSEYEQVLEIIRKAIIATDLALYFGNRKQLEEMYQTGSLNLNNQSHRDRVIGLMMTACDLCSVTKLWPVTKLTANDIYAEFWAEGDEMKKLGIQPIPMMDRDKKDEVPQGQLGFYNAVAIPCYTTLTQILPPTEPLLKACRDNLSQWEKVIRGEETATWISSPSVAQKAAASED
The experiment in a line: PDE10 biochemical assay (two-step Thompson and Appleman method or SPA). Particulars: PDE10 inhibition. The method, then:
In short, cAMP is spiked with (^3H)cAMP and incubated with PDE10 and various concentrations of a compound of structure (I). After the appropriate incubation time, the reaction is terminated by heating. The mixture is then subjected to treatment with snake venom phosphatase. The phosphatase hydrolyzes any AMP in the mixture, but leaves unreacted cAMP intact. Thus, by separating cAMP from the mixture and determining its concentration (by radiography), the percent of inhibition can be determined. IC50 values can be calculated by performing the experiment at several concentrations using standard graphical means. A detailed description of the actual technique used for IC50 assays as set forth in following Examples.
The phosphodiesterase (PDE) assay was performed using recombinant human PDE 1A3, 2A3, 3 catalytic region, 4 catalytic region, 5 catalytic region, 7A, 8A, 9A2, 10A1 and 11A1 enzymes expressed in a baculoviral system using Sf9 cells. PDE activity was measured using a modification of the two-step method of Thompson and Appleman described above which was adapted for 96 well plate format. […] The final assay volume was 110 μl with assay buffer (10 mM MgCl2; 40 mM Tris.HCl; pH 7.4). Reactions were initiated with enzyme and incubated with (^3H)-substrate and substance for 20 minutes at 30° C. The reaction was terminated by denaturing the enzyme (heating the reaction to 70° C. for 2 minutes). The reaction was then cooled at 4° C. for 10 minutes before the addition of snake venom (Crotalus atrox, 0.2 mg/ml) for 10 minutes at 30° C., thus allowing non-specific hydrolysis of the tritiated substrate. Separation of the remaining unhydrolysed cyclic nucleotide was achieved by a batch binding of the mixture to activated Dowex (200 μl) anion exchange resin. The anion exchange resin bound the charged nucleotides, leaving only hydrolysed (^3H) substrate in the soluble fraction. The soluble fraction (50 μl) was then added to microscint-20 (200 μl) and counted on a Top Count Plate reader. Radioactivity units were plotted against inhibitor concentration and IC50 values obtained using Graph Pad Prism software.
Alternatively, phosphodiesterase activity was measured by scintillation proximity assay (SPA) with [^3H]-cGMP as substrate. Purified PDE10 was diluted and stored in 25 mM Tris-Cl (pH 8.0)/100 mM NaCl/0.05% Tween 20/50% glycerol/3 mM DTT. Assays contained (final concentrations): 50 mM Tris-Cl (pH 7.5)/8.3 mM MgCl2/1.7 mM EGTA/0.5 mg/ml BSA/5% DMSO and 2 ng PDE10 in a final volume of 0.1 mL. Inhibition was evaluated at 8 concentrations in duplicate. Reactions were initiated by addition of enzyme and were terminated after 20 minutes at 30° C. by the addition of 50 μl of SPA beads containing Zn^++. The mixture was shaken, allowed to settle for 3 hours, and counted in a Wallac plate counter. Results (net cpm) were fitted to a four parameter logistic model using Excel Solver®.
Usually IC50 stands for the point on the concentration scale where inhibition reaches its midpoint. Consider `COc1cc(-c2ccc(C(=O)C(OC)c3ccc4c(c3)nnn4C)o2)cc(OC)c1Br` (stereo not drawn) [Compound 25-1, 1-(5-(4-Bromo-3,5-Dimethoxyphenyl)Furan-2-Yl)-2-Methoxy-2-(1-Methyl-1H-Benzo[D][1,2,3]Triazol-5-Yl)Ethanone], for which the IC50 was ≤ 1000 nM.

As for `COc1cc(-c2ccc(C(=O)C(OC)c3ccc(-c4cnccn4)cc3)o2)cc(OC)c1Br` (stereo not drawn) [Compound 45-1, 1-(5-(4-Bromo-3,5-Dimethoxyphenyl)Furan-2-Yl)-2-Methoxy-2-(4-(Pyrazin-2-Yl)Phenyl)Ethanone], the 50% inhibitory concentration (IC50) was ≤ 1000 nM.

For `COc1cc(-c2ccc(C(=O)C(OC)c3ccc(-c4csc(C)n4)cc3)o2)cc(OC)c1Br` (stereo not drawn) [Compound 35-1, 1-(5-(4-Bromo-3,5-Dimethoxyphenyl)Furan-2-Yl)-2-Methoxy-2-(4-(2-Methylthiazol-4-Yl)Phenyl)Ethanone], the IC50 is ≤ 1000 nM.

With `COc1cc(-c2ccc(C(=O)C(OC)c3ccc(N4CCOCC4)cc3)s2)cc(OC)c1Br` (stereo not drawn) [Compound 59-1, 1-(5-(4-Bromo-3,5-Dimethoxyphenyl)Thiophen-2-Yl)-2-Methoxy-2-(4-Morpholinophenyl)Ethanone], the IC50 was ≤ 1000 nM.

Regarding `COc1cc(-c2ccc(C(=O)C(OC)c3ccc(-c4cccnc4)cc3)o2)cc(OC)c1Br` (stereo not drawn) [Compound 37-1, 1-(5-(4-Bromo-3,5-Dimethoxyphenyl)Furan-2-Yl)-2-Methoxy-2-(4-(Pyridin-3-Yl)Phenyl)Ethanone], the half-maximal inhibitory concentration (IC50) was ≤ 1000 nM.

As to `COc1cc(-c2ccc(C(=O)C(OC)c3ccc(-n4cccn4)cc3)o2)cc(OC)c1Br` (stereo not drawn) [Compound 14-1, 2-(4-(1H-Pyrazol-1-Yl)Phenyl)-1-(5-(4-Bromo-3,5-Dimethoxyphenyl)Furan-2-Yl)-2-Methoxyethanone], the IC50 was ≤ 1000 nM.

Turning to `COc1cc(-c2ccc(C(=O)C(OC)c3ccc(N4CCOCC4)cc3)o2)cc(OC)c1F` (stereo not drawn) [Compound 48-1, 1-(5-(4-Fluoro-3,5-Dimethoxyphenyl)Furan-2-Yl)-2-Methoxy-2-(4-Morpholinophenyl)Ethanone], the IC50 was ≤ 1000 nM.

With `COc1cc(-c2ccc(C(=O)C(OC)c3ccc(CN(C)C)cc3)o2)cc(OC)c1Br` (stereo not drawn) [Compound 43-1, 1-(5-(4-Bromo-3,5-Dimethoxyphenyl)Furan-2-Yl)-2-(4-((Dimethylamino)Methyl)Phenyl)-2-Methoxyethanone], the 50% inhibitory concentration (IC50) is ≤ 1000 nM.

`COc1cc(-c2ccc(C(=O)C(OC)c3ccc(-c4cn[nH]c4)cc3)o2)cc(OC)c1Br` (stereo not drawn) [Compound 15-1, 2-(4-(1H-Pyrazol-4-Yl)Phenyl)-1-(5-(4-Bromo-3,5-Dimethoxyphenyl)Furan-2-Yl)-2-Methoxyethanone]: the half-inhibitory concentration (IC50) is ≤ 1000 nM.

As to `COc1cc(-c2ccc(C(=O)C(OC)c3ccc(-c4nnc(C)o4)cc3)o2)cc(Br)c1OC` (stereo not drawn) [Compound 39-1, 1-(5-(3-Bromo-4,5-Dimethoxyphenyl)Furan-2-Yl)-2-Methoxy-2-(4-(5-Methyl-1,3,4-Oxadiazol-2-Yl)Phenyl)Ethanone], the IC50 is ≤ 1000 nM.

Regarding `COc1ccc(-c2ccn(C(=O)C(OC)c3ccc(F)cc3)n2)cc1OC` (stereo not drawn) [Compound 51-1, 1-(3-(3,4-Dimethoxyphenyl)-1H-Pyrazol-1-Yl)-2-(4-Fluorophenyl)-2-Methoxyethanone], the half-maximal inhibitory concentration (IC50) was ≤ 1000 nM.

In the case of `COc1cc(-c2coc(C(=O)C(OC)c3ccc(-n4nccn4)cc3)n2)cc(OC)c1Br` (stereo not drawn) [Compound 65-5], the half-inhibitory concentration (IC50) is ≤ 1000 nM.

For `COc1cc(-c2coc(C(=O)C(OC)c3ccc(-n4cncn4)cc3)n2)cc(OC)c1Br` (stereo not drawn) [Compound 65-2], the concentration for half-maximal inhibition (IC50) is ≤ 1000 nM.

For `CCOc1c(OC)cc(-c2ccc(C(=O)C(OC)c3ccc(N4CCOCC4)cc3)o2)cc1OC` (stereo not drawn) [Compound 29-1, 1-(5-(4-Ethoxy-3,5-Dimethoxyphenyl)Furan-2-Yl)-2-Methoxy-2-(4-Morpholinophenyl)Ethanone], the half-maximal inhibitory concentration (IC50) is ≤ 1000 nM.

Take `COc1cc(-c2ccc(C(=O)C(OC)c3ccc(-c4nnc(C)o4)cc3)s2)cc(OC)c1Br` (stereo not drawn) [Compound 57-1, 1-(5-(4-Bromo-3,5-Dimethoxyphenyl)Thiophen-2-Yl)-2-Methoxy-2-(4-(5-Methyl-1,3,4-Oxadiazol-2-Yl)Phenyl)Ethanone]: the IC50 was ≤ 1000 nM.

Consider `CCOC(C(=O)c1ccc(-c2cc(OC)c(Br)c(OC)c2)o1)c1ccc(-c2nnc(C)s2)cc1` (stereo not drawn) [Compound 65-11], for which the half-maximal inhibitory concentration (IC50) was ≤ 1000 nM.

Turning to `COc1cc(-c2coc(C(=O)C(OC)c3ccc(-n4cccn4)cc3)n2)cc(OC)c1Br` (stereo not drawn) [Compound 5-1, 2-(4-(1H-Pyrazol-1-Yl)Phenyl)-1-(4-(4-Bromo-3,5-Dimethoxyphenyl)Oxazol-2-Yl)-2-Methoxyethanone], the IC50 was ≤ 1000 nM.

`COc1cc(-c2ccc(C(=O)C(OCC3CC3)c3ccc(N4CCOCC4)cc3)o2)cc(OC)c1Br` (stereo not drawn) [Compound 41-1, 1-(5-(4-Bromo-3,5-Dimethoxyphenyl)Furan-2-Yl)-2-(Cyclopropylmethoxy)-2-(4-Morpholinophenyl)Ethanone]: the IC50 was ≤ 1000 nM.

As for `CCc1nnc(-c2ccc(C(OC)C(=O)c3ccc(-c4cc(OC)c(Br)c(OC)c4)o3)cc2)o1` (stereo not drawn) [Compound 18-1, 1-(5-(4-Bromo-3,5-Dimethoxyphenyl)Furan-2-Yl)-2-(4-(5-Ethyl-1,3,4-Oxadiazol-2-Yl)Phenyl)-2-Methoxyethanone], the IC50 is ≤ 1000 nM.

In the case of `COc1cc(-c2ccc(C(=O)C(OC)c3ccc(-c4nnn(C)n4)cc3)o2)cc(OC)c1Br` (stereo not drawn) [Compound 33-1, 1-(5-(4-Bromo-3,5-Dimethoxyphenyl)Furan-2-Yl)-2-Methoxy-2-(4-(2-Methyl-2H-Tetrazol-5-Yl)Phenyl)Ethanone], the 50% inhibitory concentration (IC50) was ≤ 1000 nM.

In the case of `COc1cc(-c2ccc(C(=O)C(OC)c3ccc(-c4nnc(C)o4)cc3)o2)cc(OC)c1O` (stereo not drawn) [Compound 65-15], the concentration for half-maximal inhibition (IC50) is ≤ 1000 nM.

Take `COc1ccc(-c2ccn(C(=O)C(OC)c3ccc(N4CCOCC4)cc3)n2)cc1OC` (stereo not drawn) [Compound 53-1, 1-(3-(3,4-Dimethoxyphenyl)-1H-Pyrazol-1-Yl)-2-Methoxy-2-(4-Morpholinophenyl)Ethanone]: the IC50 is ≤ 1000 nM.

With `COc1cc(-c2ccc(C(=O)C(OC)c3ccc(-n4nccn4)cc3)o2)cc(OC)c1Br` (stereo not drawn) [Compound 30-1, 2-(4-(2H-1,2,3-Triazol-2-Yl)Phenyl)-1-(5-(4-Bromo-3,5-Dimethoxyphenyl)Furan-2-Yl)-2-Methoxyethanone], the IC50 is ≤ 1000 nM.

On to `COc1cc(-c2coc(C(=O)C(OC)c3cccc4ncccc34)n2)cc(OC)c1Br` (stereo not drawn) [Compound 9-1, 1-(4-(4-Bromo-3,5-Dimethoxyphenyl)Oxazol-2-Yl)-2-Methoxy-2-(Quinolin-5-Yl)Ethanone], for which the IC50 was ≤ 1000 nM.

With `COc1cc(-c2ccc(C(=O)C(OC)c3ccc(N4CCOCC4)cc3)o2)cc(OC)c1OC(F)F` (stereo not drawn) [Compound 28-1, 1-(5-(4-(Difluoromethoxy)-3,5-Dimethoxyphenyl)Furan-2-Yl)-2-Methoxy-2-(4-Morpholinophenyl)Ethanone], the IC50 is ≤ 1000 nM.

Turning to `COc1cc(-c2ccc(C(=O)C(OC)c3cccc4ncccc34)o2)cc(OC)c1Br` (stereo not drawn) [Compound 20-1, 1-(5-(4-Bromo-3,5-Dimethoxyphenyl)Furan-2-Yl)-2-Methoxy-2-(Quinolin-5-Yl)Ethanone], the IC50 is ≤ 1000 nM.

`COc1cc(-c2coc(C(=O)C(OC)c3ccc(-n4cc(C)cn4)cc3)n2)cc(OC)c1Br` (stereo not drawn) [Compound 65-6]: the IC50 was ≤ 1000 nM.
